Measurements: ChEMBL document CHEMBL4765227, “Hit to lead optimization of a series of N-[4-(1,3-benzothiazol-2-yl)phenyl]acetamides as monoacylglycerol lipase inhibitors with potential anticancer activity” (Eur J Med Chem, 2016)

How the values were obtained:
Format in all cases: functional
Conditions in all cases: read-out: GI
CCRF-CEM = assay: Growth inhibition of human CCRF-CEM cells at 10 uM incubated for 48 hrs by sulforhodamine B assay relative to control
HL-60(TB) = assay: Growth inhibition of human HL-60(TB) cells at 10 uM incubated for 48 hrs by sulforhodamine B assay relative to control
K562 = assay: Growth inhibition of human K562 cells at 10 uM incubated for 48 hrs by sulforhodamine B assay relative to control
MOLT-4 = assay: Growth inhibition of human MOLT-4 cells at 10 uM incubated for 48 hrs by sulforhodamine B assay relative to control
RPMI-8226 = assay: Growth inhibition of human RPMI-8226 cells at 10 uM incubated for 48 hrs by sulforhodamine B assay relative to control
A549 = assay: Growth inhibition of human A549/ATCC cells at 10 uM incubated for 48 hrs by sulforhodamine B assay relative to control
HOP-62 = assay: Growth inhibition of human HOP-62 cells at 10 uM incubated for 48 hrs by sulforhodamine B assay relative to control
HOP-92 = assay: Growth inhibition of human HOP-92 cells at 10 uM incubated for 48 hrs by sulforhodamine B assay relative to control
NCI-H226 = assay: Growth inhibition of human NCI-H226 cells at 10 uM incubated for 48 hrs by sulforhodamine B assay relative to control
NCI-H322M = assay: Growth inhibition of human NCI-H322M cells at 10 uM incubated for 48 hrs by sulforhodamine B assay relative to control
NCI-H460 = assay: Growth inhibition of human NCI-H460 cells at 10 uM incubated for 48 hrs by sulforhodamine B assay relative to control
NCI-H522 = assay: Growth inhibition of human NCI-H522 cells at 10 uM incubated for 48 hrs by sulforhodamine B assay relative to control
HCC 2998 = assay: Growth inhibition of human HCC 2998 cells at 10 uM incubated for 48 hrs by sulforhodamine B assay relative to control
HCT-116 = assay: Growth inhibition of human HCT-116 cells at 10 uM incubated for 48 hrs by sulforhodamine B assay relative to control
HCT-15 = assay: Growth inhibition of human HCT-15 cells at 10 uM incubated for 48 hrs by sulforhodamine B assay relative to control
HT-29 = assay: Growth inhibition of human HT-29 cells at 10 uM incubated for 48 hrs by sulforhodamine B assay relative to control
KM12 = assay: Growth inhibition of human KM12 cells at 10 uM incubated for 48 hrs by sulforhodamine B assay relative to control
SW-620 = assay: Growth inhibition of human SW-620 cells at 10 uM incubated for 48 hrs by sulforhodamine B assay relative to control
SNB-19 = assay: Growth inhibition of human SNB-19 cells at 10 uM incubated for 48 hrs by sulforhodamine B assay relative to control
SNB-75 = assay: Growth inhibition of human SNB-75 cells at 10 uM incubated for 48 hrs by sulforhodamine B assay relative to control
U-251 = assay: Growth inhibition of human U-251 cells at 10 uM incubated for 48 hrs by sulforhodamine B assay relative to control
Malme-3M = assay: Growth inhibition of human Malme-3M cells at 10 uM incubated for 48 hrs by sulforhodamine B assay relative to control
M14 = assay: Growth inhibition of human M14 cells at 10 uM incubated for 48 hrs by sulforhodamine B assay relative to control
MDA-MB-435 = assay: Growth inhibition of human MDA-MB-435 cells at 10 uM incubated for 48 hrs by sulforhodamine B assay relative to control
SK-MEL-28 = assay: Growth inhibition of human SK-MEL-28 cells at 10 uM incubated for 48 hrs by sulforhodamine B assay relative to control
SK-MEL-5 = assay: Growth inhibition of human SK-MEL-5 cells at 10 uM incubated for 48 hrs by sulforhodamine B assay relative to control
UACC-62 = assay: Growth inhibition of human UACC-62 cells at 10 uM incubated for 48 hrs by sulforhodamine B assay relative to control
IGROV-1 = assay: Growth inhibition of human IGROV-1 cells at 10 uM incubated for 48 hrs by sulforhodamine B assay relative to control
OVCAR-5 = assay: Growth inhibition of human OVCAR-5 cells at 10 uM incubated for 48 hrs by sulforhodamine B assay relative to control
OVCAR-8 = assay: Growth inhibition of human OVCAR-8 cells at 10 uM incubated for 48 hrs by sulforhodamine B assay relative to control
NCI/ADR-RES = assay: Growth inhibition of human NCI/ADR-RES cells at 10 uM incubated for 48 hrs by sulforhodamine B assay relative to control
SK-OV-3 = assay: Growth inhibition of human SK-OV-3 cells at 10 uM incubated for 48 hrs by sulforhodamine B assay relative to control
ACHN = assay: Growth inhibition of human ACHN cells at 10 uM incubated for 48 hrs by sulforhodamine B assay relative to control
CAKI-1 = assay: Growth inhibition of human CAKI-1 cells at 10 uM incubated for 48 hrs by sulforhodamine B assay relative to control
RXF 393 = assay: Growth inhibition of human RXF 393 cells at 10 uM incubated for 48 hrs by sulforhodamine B assay relative to control
SN12C = assay: Growth inhibition of human SN12C cells at 10 uM incubated for 48 hrs by sulforhodamine B assay relative to control
TK-10 = assay: Growth inhibition of human TK-10 cells at 10 uM incubated for 48 hrs by sulforhodamine B assay relative to control
UO-31 = assay: Growth inhibition of human UO-31 cells at 10 uM incubated for 48 hrs by sulforhodamine B assay relative to control
PC-3 = assay: Growth inhibition of human PC-3 cells at 10 uM incubated for 48 hrs by sulforhodamine B assay relative to control
DU-145 = assay: Growth inhibition of human DU-145 cells at 10 uM incubated for 48 hrs by sulforhodamine B assay relative to control
MDA-MB-231 = assay: Growth inhibition of human MDA-MB-231 cells at 10 uM incubated for 48 hrs by sulforhodamine B assay relative to control
BT-549 = assay: Growth inhibition of human BT-549 cells at 10 uM incubated for 48 hrs by sulforhodamine B assay relative to control
T47D = assay: Growth inhibition of human T47D cells at 10 uM incubated for 48 hrs by sulforhodamine B assay relative to control
MDA-MB-468 = assay: Growth inhibition of human MDA-MB-468 cells at 10 uM incubated for 48 hrs by sulforhodamine B assay relative to control

In the case of Cc1cc(C)n(CC(=O)Nc2ccc(-c3nc4ccccc4s3)cc2)n1, the inhibition of growth at 10 µM (CCRF-CEM) is reported as 1.49%, the inhibition of growth at 10 µM (HL-60(TB)) is reported as -2.97% and the inhibition of growth at 10 µM (K562) is reported as -0.21%. It also gave an inhibition of growth at 10 µM (MOLT-4) of 16%, an inhibition of growth at 10 µM (RPMI-8226) of 2.85% and an inhibition of growth at 10 µM (A549) of 5.29%. For the same compound, the inhibition of growth at 10 µM (HOP-62) was -5.06%, the inhibition of growth at 10 µM (HOP-92) was 2.31% and the inhibition of growth at 10 µM (NCI-H226) was -0.25%. It also gave an inhibition of growth at 10 µM (NCI-H322M) of 0.12%, an inhibition of growth at 10 µM (NCI-H460) of -2.37% and an inhibition of growth at 10 µM (NCI-H522) of -2.77%. The inhibition of growth at 10 µM (HCC 2998) was 7.15%, the inhibition of growth at 10 µM (HCT-116) was -7.45% and the inhibition of growth at 10 µM (HCT-15) was -5.24%. It also gave an inhibition of growth at 10 µM (HT-29) of -8.3%, an inhibition of growth at 10 µM (KM12) of -0.27% and an inhibition of growth at 10 µM (SW-620) of -13.1%. It also gave an inhibition of growth at 10 µM (SNB-19) of 0.22%, an inhibition of growth at 10 µM (SNB-75) of -0.57% and an inhibition of growth at 10 µM (U-251) of 10.3%. For the same compound, the inhibition of growth at 10 µM (Malme-3M) was -7.85%, the inhibition of growth at 10 µM (M14) was -11.3% and the inhibition of growth at 10 µM (MDA-MB-435) was -7.5%. For the same compound, the inhibition of growth at 10 µM (SK-MEL-28) was -8.88%, the inhibition of growth at 10 µM (SK-MEL-5) was 3.6% and the inhibition of growth at 10 µM (UACC-62) was 4.67%. For the same compound, the inhibition of growth at 10 µM (IGROV-1) was 2.57%, the inhibition of growth at 10 µM (OVCAR-5) was -4.65% and the inhibition of growth at 10 µM (OVCAR-8) was 0.31%. For the same compound, the inhibition of growth at 10 µM (NCI/ADR-RES) was -2.56%, the inhibition of growth at 10 µM (SK-OV-3) was -14% and the inhibition of growth at 10 µM (ACHN) was -14.4%. The inhibition of growth at 10 µM (CAKI-1) was -1.54%, the inhibition of growth at 10 µM (RXF 393) was -29% and the inhibition of growth at 10 µM (SN12C) was -2.13%. For the same compound, the inhibition of growth at 10 µM (TK-10) was -6.36%, the inhibition of growth at 10 µM (UO-31) was 16.2% and the inhibition of growth at 10 µM (PC-3) was 13.2%. It also gave an inhibition of growth at 10 µM (DU-145) of -2.89%, an inhibition of growth at 10 µM (MDA-MB-231) of -7.87% and an inhibition of growth at 10 µM (BT-549) of -15.3%. For the same compound, the inhibition of growth at 10 µM (T47D) was 6.7% and the inhibition of growth at 10 µM (MDA-MB-468) was 103%.
O=C(CNCc1ccccc1)Nc1ccc(-c2nc3ccccc3s2)cc1 was tested, and the inhibition of growth at 10 µM (CCRF-CEM) was 9.29%, the inhibition of growth at 10 µM (HL-60(TB)) was 3.9% and the inhibition of growth at 10 µM (K562) was 11.6%. It also gave an inhibition of growth at 10 µM (MOLT-4) of 12%, an inhibition of growth at 10 µM (RPMI-8226) of 10.1% and an inhibition of growth at 10 µM (A549) of 22.7%. It also gave an inhibition of growth at 10 µM (HOP-62) of -6.53%, an inhibition of growth at 10 µM (HOP-92) of 15.1% and an inhibition of growth at 10 µM (NCI-H226) of 15.8%. For the same compound, the inhibition of growth at 10 µM (NCI-H322M) was 17.8%, the inhibition of growth at 10 µM (NCI-H460) was 3.57% and the inhibition of growth at 10 µM (NCI-H522) was 9.64%. The inhibition of growth at 10 µM (HCC 2998) was 9.91%, the inhibition of growth at 10 µM (HCT-116) was 5.15% and the inhibition of growth at 10 µM (HCT-15) was 8.74%. The inhibition of growth at 10 µM (HT-29) was 1.86%, the inhibition of growth at 10 µM (KM12) was 2.66% and the inhibition of growth at 10 µM (SW-620) was -1.34%. For the same compound, the inhibition of growth at 10 µM (SNB-19) was 2.46%, the inhibition of growth at 10 µM (SNB-75) was 18% and the inhibition of growth at 10 µM (U-251) was 18.6%. It also gave an inhibition of growth at 10 µM (Malme-3M) of -6.22%, an inhibition of growth at 10 µM (M14) of 3.6% and an inhibition of growth at 10 µM (MDA-MB-435) of 4.91%. It also gave an inhibition of growth at 10 µM (SK-MEL-28) of 2.7%, an inhibition of growth at 10 µM (SK-MEL-5) of 5.63% and an inhibition of growth at 10 µM (UACC-62) of 7.61%. For the same compound, the inhibition of growth at 10 µM (IGROV-1) was -2.9%, the inhibition of growth at 10 µM (OVCAR-5) was 12.3% and the inhibition of growth at 10 µM (OVCAR-8) was -1.99%. It also gave an inhibition of growth at 10 µM (NCI/ADR-RES) of -0.82%, an inhibition of growth at 10 µM (SK-OV-3) of -18.4% and an inhibition of growth at 10 µM (ACHN) of 0.1%. For the same compound, the inhibition of growth at 10 µM (CAKI-1) was 9.29%, the inhibition of growth at 10 µM (RXF 393) was -3.76% and the inhibition of growth at 10 µM (SN12C) was 5.25%. The inhibition of growth at 10 µM (TK-10) was -12%, the inhibition of growth at 10 µM (UO-31) was 20.5% and the inhibition of growth at 10 µM (PC-3) was 19.1%. The inhibition of growth at 10 µM (DU-145) was -7.09%, the inhibition of growth at 10 µM (MDA-MB-231) was 16.9% and the inhibition of growth at 10 µM (BT-549) was 1.91%. It also gave an inhibition of growth at 10 µM (T47D) of 11.6% and an inhibition of growth at 10 µM (MDA-MB-468) of 73.3%.
